In ChEMBL document CHEMBL5726928, “Aryl, heteroaryl, and heterocyclic compounds for treatment of medical disorders” (2019):

Biological target: Complement factor D (Homo sapiens, UniProt P00746)
Assay: Human Factor D Assay: Human Factor D (purified from human serum, Complement Technology, Inc.) at 80 nM final concentration was incubated with test compound at various concentrations for 5 minutes at room temperature in 50 mM Tris, 1M NaCl, pH 7.5. A synthetic substrate Z-L-Lys-SBzl and DTNB (Ellman's reagent) are added to final concentrations of 100 μM each. […] IC50 values are calculated by nonlinear regression of complement Factor D reaction rates as a function of test compound concentration.

Sequence of Complement factor D (P00746 whole entry): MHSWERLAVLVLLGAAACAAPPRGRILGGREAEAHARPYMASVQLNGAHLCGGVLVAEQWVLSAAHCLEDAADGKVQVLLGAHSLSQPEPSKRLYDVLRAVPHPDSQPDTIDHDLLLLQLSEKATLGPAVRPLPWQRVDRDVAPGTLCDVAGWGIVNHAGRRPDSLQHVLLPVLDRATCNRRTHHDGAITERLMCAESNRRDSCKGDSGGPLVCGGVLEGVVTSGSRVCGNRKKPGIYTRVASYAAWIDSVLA

How did the IC50 turn out when CC(=O)c1nn(CC(=O)N2C[C@H](F)C[C@H]2C(=O)Nc2cccc(C)n2)c2ccc(-c3cnc(C)nc3)cc12 was run?
The IC50 was under 1 µM.

Which IC50 does the source give for CC(=O)c1nn(CC(=O)N2C[C@H](F)C[C@H]2C(=O)N[C@H](C)[C@H]2CC2(Cl)Cl)c2ccc(-c3cnc(C)nc3)cc12 here?
Its IC50 is under 1 µM.

How did the IC50 turn out when CC(=O)c1nn(CC(=O)N2C[C@H](F)C[C@H]2C(=O)Nc2cccc(Br)n2)c2ccc(-c3cnc([S+](C)[O-])nc3)cc12 (stereo partly specified) was run?
The IC50 was under 1 µM.

For CC(=O)c1nn(CC(=O)N2C[C@H](F)C[C@H]2C(=O)N[C@@H]2C[C@H]2c2ccccc2Cl)c2ccc(-c3cnc(C)nc3)cc12, which IC50 is on record?
Its IC50 is under 1 µM.

Which IC50 does the source give for CC(=O)c1nn(CC(=O)N2[C@H](C(=O)NCc3cccc(Cl)c3F)C[C@@]3(C)C[C@@H]23)c2ccc(-c3cnc(C)nc3)cc12 here?
Its IC50 is under 1 µM.

For CC(=O)c1nn(CC(=O)N2C[C@H](F)C[C@H]2C(=O)Nc2ccn(CCC(F)(F)F)n2)c2ccc(-c3cnc(C)nc3)cc12, which IC50 is on record?
The IC50 was under 1 µM.

For CC(=O)c1nn(CC(=O)N2C[C@H](F)C[C@H]2C(=O)Nc2nc(Br)ccc2Cl)c2ccc(-c3cnc(C)nc3)cc12, which IC50 is on record?
The IC50 was under 1 µM.

For CC(=O)c1nn(CC(=O)N2[C@@H]3C[C@@H]3C[C@H]2C(=O)Nc2cccc(Br)n2)c2ccc(-c3cnc(NC(C)C)nc3)cc12, which IC50 is on record?
Its IC50 is under 1 µM.

How did the IC50 turn out when CC(=O)c1nn(CC(=O)N2C[C@H](F)C[C@H]2C(=O)Nc2cccc(OC(F)(F)F)n2)c2ccc(-c3cnc(N)nc3)cc12 was run?
The IC50 was under 1 µM.

For CC(=O)c1nn(CC(=O)N2[C@@H]3C[C@@H]3C[C@H]2C(=O)NC/C(F)=C(/C)c2ccccc2)c2ccc(-c3cnc(C)nc3)cc12, which IC50 is on record?
Its IC50 is under 1 µM.

How did the IC50 turn out when CC(=O)c1nn(CC(=O)N2C[C@H](F)C[C@H]2C(=O)Nc2cccc(Br)c2)c2ccc(-c3cnc(C)nc3)cc12 was run?
Its IC50 is under 1 µM.

Which IC50 does the source give for COCCNc1ncc(-c2ccc3c(c2)c(C(C)=O)cn3CC(=O)N2[C@@H]3C[C@@H]3C[C@H]2C(=O)Nc2cccc(Br)n2)cn1 here?
Its IC50 is under 1 µM.

How did the IC50 turn out when CC(=O)c1nn(CC(=O)N2C[C@@](F)(CO)C[C@H]2C(=O)Nc2cccc(Br)n2)c2ccc(-c3cnc(C)nc3)cc12 was run?
Its IC50 is under 1 µM.

Which IC50 does the source give for CC(=O)c1nn(CC(=O)N2C[C@H](F)C[C@H]2C(=O)Nc2cccc(Br)n2)c2ccc(-c3cnnc(C)c3)cc12 here?
Its IC50 is under 1 µM.

How did the IC50 turn out when CC(=O)c1nn(CC(=O)N2C[C@H](F)C[C@H]2C(=O)Nc2cccc(OC(F)(F)F)c2C#N)c2ccc(-c3cnc(C)nc3)cc12 was run?
The IC50 was under 1 µM.

Which IC50 does the source give for CC(=O)c1nn(CC(=O)N2[C@H](C(=O)NCc3cccc(Cl)c3)C[C@@]3(C)C[C@@H]23)c2ccc(-c3cnc(C)nc3)cc12 here?
The IC50 was under 1 µM.

With CC(=O)c1nn(CC(=O)N2[C@H](C(=O)NCC3CC3(Cl)Cl)C[C@@]3(C)C[C@@H]23)c2ccc(-c3cnc(C)nc3)cc12 (stereo partly specified) as the compound, how does the IC50 read?
Its IC50 is under 1 µM.

How did the IC50 turn out when CCn1ccc(NC(=O)[C@@H]2C[C@@H](F)CN2C(=O)Cn2nc(C(C)=O)c3cc(-c4cnc(C)nc4)ccc32)n1 was run?
The IC50 was under 1 µM.

How did the IC50 turn out when CC(=O)c1nn(CC(=O)N2C[C@H](F)C[C@H]2C(=O)Nc2cccnn2)c2ccc(-c3cnc4cc(C)nn4c3)cc12 was run?
The IC50 was under 1 µM.

COCCNc1ncc(-c2ccc3c(c2)c(C(C)=O)cn3CC(=O)N2C[C@H](F)C[C@H]2C(=O)Nc2cccc(Br)n2)cn1 was tested. Which IC50 did it give?
Its IC50 is under 1 µM.

How did the IC50 turn out when COc1ccc(Br)nc1NC(=O)[C@@H]1C[C@@H](F)CN1C(=O)Cn1nc(C(C)=O)c2cc(-c3cnc(C)nc3)ccc21 was run?
Its IC50 is under 1 µM.

How did the IC50 turn out when CC(=O)c1nn(CC(=O)N2C[C@H](F)C[C@H]2C(=O)N[C@H]2C[C@@H]2c2ccccc2Cl)c2ccc(-c3cnc(C)nc3)cc12 was run?
The IC50 was under 1 µM.

With Cc1cc2ncc(-c3ccc4c(c3)c(C(N)=O)nn4CC(=O)N3C[C@H](F)C[C@H]3C(=O)Nc3cccc(OC(F)(F)F)c3F)cn2n1 as the compound, how does the IC50 read?
Its IC50 is under 1 µM.

With CC(=O)c1nn(CC(=O)N2[C@@H]3C[C@@H]3C[C@H]2C(=O)Nc2nc(Br)ccc2C)c2ccc(-c3cnc(C)nc3)cc12 as the compound, how does the IC50 read?
The IC50 was under 1 µM.

How did the IC50 turn out when CCOC(=O)Cc1ncc(-c2ccc3c(c2)c(C(C)=O)nn3CC(=O)N2C[C@H](F)C[C@H]2C(=O)Nc2nc(Br)ccc2C)cn1 was run?
Its IC50 is under 1 µM.

For CC(=O)c1nn(CC(=O)N2C[C@H](F)C[C@H]2C(=O)Nc2cccc(Br)n2)c2ccc(-c3nc4ccccc4[nH]3)cc12, which IC50 is on record?
Its IC50 is under 1 µM.

With CC(=O)c1cn(CC(=O)N2C[C@H](F)C[C@H]2C(=O)Nc2cccc(Br)n2)c2ccc(-c3cnc4ccnn4c3)cc12 as the compound, how does the IC50 read?
Its IC50 is under 1 µM.

With CC(=O)c1nn(CC(=O)N2C[C@H](F)C[C@H]2C(=O)Nc2nn(CC(F)(F)F)cc2C)c2ccc(-c3cnc(C)nc3)cc12 as the compound, how does the IC50 read?
Its IC50 is under 1 µM.

Which IC50 does the source give for CC(=O)c1nn(CC(=O)N2C[C@H](F)C[C@H]2C(=O)NC[C@H]2CC2(Cl)Cl)c2ccc(-c3cnc(C)nc3)cc12 here?
Its IC50 is under 1 µM.

CC(=O)c1nn(CC(=O)N2C[C@H](F)C[C@H]2C(=O)Nc2ccc(F)c(Br)c2F)c2ccc(-c3cnc(C)nc3)cc12 was tested. Which IC50 did it give?
The IC50 was under 1 µM.

Which IC50 does the source give for CC(=O)c1nn(CC(=O)N2C[C@H](F)C[C@H]2C(=O)NC[C@@H]2CC2(Cl)Cl)c2ccc(-c3cnc(C)nc3)cc12 here?
Its IC50 is under 1 µM.
